row,SMILES,melting point [°C]
1,COC(=O)c1ccc(OCCCCCCc2cccc(OCc3ccccc3)c2OCc2ccccc2)c(Cl)c1,68 to 69
2,c1ccc(-c2n[nH]c3c2Cc2ccccc2-3)cc1,234 to 236
3,CC(C)(C)OC(=O)N1CCN(C(=O)NNC(=O)OCc2ccccc2)CC1,194 to 196
4,CC(C)(C)C1(O)CCN(CC2c3ccccc3CCc3ccccc32)CC1,96 to 98.5
5,COc1cccc2sc(-c3ccc(C(C)(C)C)cc3)nc12,90 to 91
6,COc1ccc(Nc2nc(NC3CCNCC3)nc(N(C)N3CCCCCC3)n2)cc1Cl,81
7,CCOc1ccc(CCCCC=CC(=O)O)cc1,62 to 63
8,CCOC(=O)C1=C(C)NC(CSCCOC(C)=O)=C(C(=O)OCC)C1c1cccc([N+](=O)[O-])c1 (centres undefined),84 to 86
9,NC(N)=NC(=O)Cn1c(Cl)c(Cl)c(Cl)c1Cl,215 to 217
10,CC(C)CCN1C(=O)C(NC(=O)Oc2ccccc2)C(=O)N(c2ccccc2)c2ccc(Cl)cc21 (centres undefined),190 to 195
11,NC(=O)c1sc2nccc(N3CCCN(c4ccc(C(F)(F)F)cc4)CC3)c2c1N,204 to 208
12,CCOC(=O)N1CCC2(CC1)C(=O)NCN2c1ccc(F)cc1,153
13,N#CC12CC3CC(CC(Cl)(C3)C1)C2,156 to 157
14,Clc1ccc(-c2nc3n(c2Br)CCS3)c(Cl)c1,200 to 202
15,O=C(O)c1cc2[nH]c3c(O)cccc3c(=O)n2n1,326 to 330
16,CS(=O)(=O)Nc1ccc(CC#N)c2cn[nH]c12,223 to 225
17,Cc1cc(F)ccc1-c1nc(NCC(F)(F)F)nc2c1ccc(=O)n2-c1c(F)cccc1F,195 to 196
18,Cc1nc(C#CCCn2nc3ccccc3n2)sc1C,96 to 98
19,CC(C)(C=C=CC(=O)O)c1ccc(Cl)cc1,64 to 67
20,CC(=O)OC1N=C(c2ccccc2Cl)c2c(cn(C)c2C)N(C)C1=O (centres undefined),202 to 204
21,COC(=O)C(C)=Cc1ccc(OCCCNc2ccc(Cl)cc2)cc1,62 to 64
22,COc1ccc(C(=O)c2ccccc2)cc1OCCCN1CCC(c2noc3cc(F)ccc23)CC1,140 to 141
23,COc1ccc2c(c1)CCC(CN1CCC3(CC1)C(=O)NCN3c1ccccc1)=C2,182 to 193
24,CC(C)NC(=O)C(Cc1ccccc1)NC(=O)Nc1n[nH]c(=S)s1 (centres undefined),206 to 211
25,CCOC(=O)c1ccc(NC(=O)C(C)C)c(N)c1,147 to 149

row,SMILES,melting point [°C]
1,CS(=O)CCC1=NS(=O)(=O)NC(N)=N1 (centres undefined),180 to 182
2,COc1cc(C(C)=NNC(=N)NCc2ccccc2)cc(OC)c1OC,107 to 109
3,COCCNC(=O)c1nc(C(=O)OC)c2cc(Cc3ccc(F)cc3)cnc2c1OCc1ccccc1,94
4,O=C(NC1N=C(c2ccccc2F)c2ccccc2NC1=O)c1ccc(C(F)(F)F)cc1 (racemic),209 to 211
5,Nc1ccccc1C(O)c1cc(C(F)(F)F)nc2c(C(F)(F)F)cccc12 (centres undefined),146
6,Cc1nc(-c2ccccc2)oc1C(N)=O,187 to 190
7,"CC(C)C(=O)NCCNCC(O)COc1ccccc1 (single isomer, unassigned; (-))",89 to 91
8,O=C1N(Cc2ccc(Cl)s2)c2ccccc2C12COc1ccc(OCc3ccccc3)cc12 (centres undefined),132 to 135
9,COCC1CC2CCC13CN(CC1CC1)CCC31c3cccc(O)c3OC21 (centres undefined),128 to 129
10,CC(C(=O)O)c1ccc2c(c1)Cc1cc(O)ccc1-2 (centres undefined),205 to 207
11,CC(=O)OC1C=C(Br)C(=O)CO1 (centres undefined),78 to 80
12,CN1CCN(c2cc(Cl)cc3c2c(=O)n(Cc2ccc(C#N)cc2)c(=O)n3Cc2ccccc2)CC1,99 to 105
13,O=C1C(=O)N2CCCc3cc(Cl)cc1c32,188 to 189
14,CCc1ccccc1NS(=O)(=O)c1ccc(N2CCNC2=O)cc1,171 to 172
15,CCC1(CC)C(=O)C(C)N(c2ccc(C#N)c(Cl)c2)C1=O (centres undefined),93.5 to 94.5
16,O=C(CCl)N1CCSC1COc1ccccc1O (centres undefined),89 to 91
17,CCOC(=O)c1c[nH]c2nc(NCc3ccccc3)nn2c1=O,275 to 278
18,O=[N+]([O-])c1ccc(S(=O)(=O)OS(=O)(=O)c2ccc([N+](=O)[O-])cc2)cc1,171 to 172
19,CC(C)(C)c1ccc(CCC(CO)CC2CCCCC2)cc1NC(=O)CC1c2ccccc2Oc2ccccc21 (centres undefined),130 to 131
20,CCc1nc2c(cnn2CC)c(NC2CCOCC2)c1CNC(=O)c1cccc(C(=O)NCc2ccc(OC)c(-c3cccc(CN4CCNCC4)c3)c2)c1,138 to 140
21,Cc1ccc(Nc2cccc(O)c2)cc1,86 to 88
22,COc1ccc(-c2nc3n(c2-c2ccc(OC)cc2)Cc2ccccc2C3)cc1,170 to 172
23,Fc1ccc([C@]2(Cn3nc[nH]c3=S)O[C@H]2c2ccccc2Cl)c(F)c1 (racemic),180
24,Cc1cccc(NC(=O)NC2N=C(C3CCCCC3)c3cccc(C)c3N(CC(=O)N3CCCCCCC3)C2=O)c1 (centres undefined),154 to 155
25,CC(C)C(CNC(=O)OCc1ccccc1)C(=O)O (centres undefined),75.5 to 78.5

row,SMILES,melting point [°C]
1,CCN(CC)Cc1nc(-c2ncn3c2[C@@H]2CCCN2C(=O)c2c(Cl)cccc2-3)no1,151 to 153
2,O=c1ccc(Oc2ccc(Cl)cc2)n[nH]1,202
3,COc1ccccc1CN1CCC(CCC(=O)c2ccc(N3CCCC3)cc2)CC1,89 to 91
4,Cc1cc(C(=O)CCc2cc(-c3ccc(C(F)(F)F)cc3)nn2Cc2ccccc2)ccc1OCC(=O)O,175 to 180
5,CC(C)(C)c1ccc2oc(C(=O)CBr)cc2c1,100 to 102
6,COc1nsc(N[C@@H](CC(C)C)C(=O)N2CCC[C@H]2C(=O)O)n1,89 to 92
7,Cc1nc(Cl)c2ncn(-c3ccc(C(C)C)cc3Br)c2n1,49 to 52
8,O=C(CCl)NCc1ccc2ccn(C3CCN(CCc4ccc(F)cc4)CC3)c2c1,143 to 144
9,O=C(O)CCc1nn(-c2ccc(F)cc2)cc1-c1ccc(Cl)cc1,131
10,CCN(CC)CC=CC(=O)Nc1ccc2ncnc(Nc3cccc(Br)c3)c2c1,196 to 199
11,Cc1nc(NC(=O)c2cnn3c(C(F)(F)F)cc(-c4ccc(C(F)(F)F)c(OCC(F)(F)F)c4)nc23)sc1S(N)(=O)=O,264
12,CC(=O)OC1CSC(Oc2cnc(-c3ccncc3)c(F)c2)C(OC(C)=O)C1OC(C)=O (centres undefined),165
13,CN(C)c1cccc2c(S(=O)(=O)Nc3ccc([N+](=O)[O-])cn3)cccc12,196
14,C=CCN1CCC[C@H]1C(N)=O,79 to 81
15,CCc1cccc2oc(C(=O)Nc3ccc(-c4ccc(S(=O)(=O)NC(C(=O)OC)C(C)C)cc4)cc3)c(C)c12 (centres undefined),183 to 185
16,CCOC(=O)[C@H](Cc1ccc(OC)cc1)NC(=O)C1(NC(=O)OC(C)(C)C)CCCC1,143 to 146
17,COc1ccc2[nH]cc(CCCN(C3CCC3)C3COc4c(F)ccc(C(N)=O)c4C3)c2c1 (centres undefined),151 to 158
18,COCn1c(C(O)(c2ccc(Cl)cc2)c2ccc(Cl)cc2)nc(C)c1C,151
19,N#Cc1c(N2CCc3ccccc3CC2)nc(C2CC2)n(CC(F)(F)F)c1=O,116 to 118
20,O=c1[nH]c(-c2cccnc2O)nc2ccccc12,190 to 192
21,COc1cc(Nc2cc(-c3ccccc3)on2)ccc1-c1cnco1,173 to 175
22,O=[N+]([O-])c1cc(Cl)c(Cl)c(Cl)c1Cl,41 to 44
23,CC(C)C1C(=O)N(CSc2ccccc2)S(=O)(=O)N1C (centres undefined),82 to 83
24,CS(=O)(=O)Nc1ccc(C23CC2C(=O)NC3=O)cc1 (centres undefined),208 to 209
25,C=CC[C@H](CC(=O)OC(C)(C)C)C(=O)N[C@H](C(=O)N[C@H](C)c1ccccc1)C(C)(C)C,123 to 126

row,SMILES,melting point [°C]
1,CC1(C)C(C(=O)O)N2C(=O)C(NC(=O)COc3ccccc3)C2S1=O (centres undefined),160 to 161
2,CC#CCOc1cc(Oc2ccc(F)c(C(F)(F)F)c2)ncn1,90.1
3,CCCCc1ccc(CCCCCCC(=O)O)cc1,32 to 33
4,COc1ccc2c(c1)Sc1c(cc(OC)c(OC(=O)c3ccccc3)c1Br)N2,202 to 203
5,COc1ccc(F)cc1C(C)(C)CC(O)(Cc1ccccn1)C(F)(F)F (centres undefined),94 to 96
6,CC(C)(CO)NC(=S)NC(=O)c1ccccc1,116 to 118
7,CCOC(=O)C1=C(C)NC(CF)=C(C(=O)OCC)C1c1cccc([N+](=O)[O-])c1 (centres undefined),139 to 141
8,COC(=O)C1Cc2c([nH]c3ccccc23)C(C)N1Cc1ccccc1 (centres undefined),143 to 144
9,N#CN1CCC2(CC1)CN(c1ccccc1F)c1ccccc12,131 to 132
10,N=C(O)c1cc(C(O)=Nc2ccc(O)cc2)c(C(=O)O)cc1C(=O)O,300
11,CN(C)CCNc1cc(Oc2ccc3c(C(=O)Nc4cc(C(C)(C)C)nn4-c4ccc(F)cc4)cccc3c2)ncn1,153 to 155
12,O=C1CCC(N2Cc3c(CNC(=O)c4ccccn4)cccc3C2=O)C(=O)N1 (centres undefined),254 to 256
13,COc1cc(C(=O)c2nc(NS(C)(=O)=O)c3ccccn23)ccc1[N+](=O)[O-],231
14,c1cc2cc(-c3cn([C@H]4CN5CCC4CC5)nn3)ccc2o1,178
15,Cc1cc(C2OCCO2)ncc1[N+](=O)[O-],77 to 79
16,Cn1cc(Br)cc(N)c1=O,104 to 105
17,CCCC1=C(C(=O)OCC)C(c2cccc(F)c2C)c2c[nH]nc2N1 (centres undefined),159 to 162
18,Cc1cc(C2=NOC(c3cc(Cl)cc(Cl)c3)(C(F)(F)F)C2)ccc1C(=O)NCC(F)(F)F (centres undefined),156 to 157
19,O=C1NCCN1c1cccc([N+](=O)[O-])c1,158 to 160
20,Cc1cccc(C2(CCC(=O)O)NC(=O)NC2=O)c1 (centres undefined),173 to 178
21,COc1cc(C(=O)/C=C/c2ccc3c(c2)OCO3)cc(OC)c1OC,135
22,CC(C)(C)C1CSC2(CCC(C)(C(Cl)Cl)CC2)SC1 (centres undefined),163
23,CCCCOC(=O)Oc1ccc(-c2ccc(C#N)cc2)cc1,64.8 to 65.7
24,O=C(O)c1ccc(S(=O)(=O)CCO)c([N+](=O)[O-])c1,190 to 192

# — a melting point compilation (Tetko et al.; mined from patent text by program, amines drawn as free bases though some values may be those of a salt)
